One data set deals with T1, AtPMT2 (Arabidopsis thaliana, UniProt Q9XIH6).
T1 sequence (Q9XIH6 1-511): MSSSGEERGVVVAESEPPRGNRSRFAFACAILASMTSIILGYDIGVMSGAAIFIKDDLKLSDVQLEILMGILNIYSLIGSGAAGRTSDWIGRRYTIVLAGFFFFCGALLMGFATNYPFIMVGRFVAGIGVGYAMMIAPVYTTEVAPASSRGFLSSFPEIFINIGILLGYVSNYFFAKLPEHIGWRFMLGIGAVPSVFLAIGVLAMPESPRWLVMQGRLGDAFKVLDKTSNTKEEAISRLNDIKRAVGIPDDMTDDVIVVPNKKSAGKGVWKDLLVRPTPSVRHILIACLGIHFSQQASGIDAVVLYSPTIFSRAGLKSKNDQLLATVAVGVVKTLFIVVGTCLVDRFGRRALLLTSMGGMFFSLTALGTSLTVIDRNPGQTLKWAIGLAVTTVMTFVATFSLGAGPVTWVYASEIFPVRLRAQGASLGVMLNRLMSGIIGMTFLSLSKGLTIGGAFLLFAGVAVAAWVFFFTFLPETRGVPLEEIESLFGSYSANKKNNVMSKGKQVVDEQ
Nature of the data set: competition of […]-sorbitol uptake in transgenic yeast. It counts as cell-based. Conditions: pH 5.0.

Another data set has as its target T2, AtPMT1 (Arabidopsis thaliana, UniProt Q9XIH7).
T2 sequence (Q9XIH7 1-511): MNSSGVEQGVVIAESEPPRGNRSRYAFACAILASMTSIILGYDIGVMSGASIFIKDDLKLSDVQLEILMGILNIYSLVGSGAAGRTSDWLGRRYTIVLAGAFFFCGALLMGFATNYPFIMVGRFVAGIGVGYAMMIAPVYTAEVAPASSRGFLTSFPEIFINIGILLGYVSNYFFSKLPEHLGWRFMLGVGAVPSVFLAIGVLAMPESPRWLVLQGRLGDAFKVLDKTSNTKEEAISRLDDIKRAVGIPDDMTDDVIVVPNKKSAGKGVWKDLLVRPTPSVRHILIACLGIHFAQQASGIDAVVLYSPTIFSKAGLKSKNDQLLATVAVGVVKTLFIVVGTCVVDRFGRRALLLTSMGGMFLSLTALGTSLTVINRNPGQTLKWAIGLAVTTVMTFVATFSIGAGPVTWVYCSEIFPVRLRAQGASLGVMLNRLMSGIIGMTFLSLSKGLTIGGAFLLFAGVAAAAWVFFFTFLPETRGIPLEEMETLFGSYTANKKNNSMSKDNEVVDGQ
The data set is described as above. It counts as cell-based. The settings on record: pH 5.0.

Substrate in data set [1]: OC[C@@H](O)[C@H](O)[C@@H](O)CO
Nature of the data set: cells, lysate or membranes. Conditions: 50 mM sodium phosphate pH 5.0, H+ symport.

Substrate in data set [2]: OC[C@@H](O)[C@@H](O)[C@H](O)[C@@H](O)CO
Description: cells, lysate or membranes. The settings on record: 50 mM sodium phosphate pH 5.0, H+ symport.

As to `OC[C@@H](O)[C@@H](O)[C@H](O)[C@@H](O)CO` [sorbitol], the “uptake of 0.1 mM 14C-sorbitol with 10 mM competitor” value on AtPMT2 (10 mM unlabelled sorbitol) was “sorbitol was transported by both cell lines”. In the case of `OC[C@@H](O)[C@@H](O)CO` [erythritol], the “uptake of 0.1 mM 14C-sorbitol with 10 mM competitor” value is given as “In both strains, uptake of sorbitol was strongly reduced in the presence of xylitol” at AtPMT1 and “In both strains, uptake of sorbitol was strongly reduced in the presence of xylitol” at AtPMT2 (10 mM competitor).

B1: AtPMT2 (Arabidopsis thaliana) (protein)
chain: MSSSGEERGVVVAESEPPRGNRSRFAFACAILASMTSIILGYDIGVMSGAAIFIKDDLKLSDVQLEILMGILNIYSLIGSGAAGRTSDWIGRRYTIVLAGFFFFCGALLMGFATNYPFIMVGRFVAGIGVGYAMMIAPVYTTEVAPASSRGFLSSFPEIFINIGILLGYVSNYFFAKLPEHIGWRFMLGIGAVPSVFLAIGVLAMPESPRWLVMQGRLGDAFKVLDKTSNTKEEAISRLNDIKRAVGIPDDMTDDVIVVPNKKSAGKGVWKDLLVRPTPSVRHILIACLGIHFSQQASGIDAVVLYSPTIFSRAGLKSKNDQLLATVAVGVVKTLFIVVGTCLVDRFGRRALLLTSMGGMFFSLTALGTSLTVIDRNPGQTLKWAIGLAVTTVMTFVATFSLGAGPVTWVYASEIFPVRLRAQGASLGVMLNRLMSGIIGMTFLSLSKGLTIGGAFLLFAGVAVAAWVFFFTFLPETRGVPLEEIESLFGSYSANKKNNVMSKGKQVVDEQ
A word on the Km: it is the concentration of substrate that gives half-maximal velocity. For the molecule B1, in data set [1], the Michaelis-Menten constant (Km) was found to be 180 ± 10 µM.

B2: AtPMT1 (Arabidopsis thaliana) (protein)
chain: MNSSGVEQGVVIAESEPPRGNRSRYAFACAILASMTSIILGYDIGVMSGASIFIKDDLKLSDVQLEILMGILNIYSLVGSGAAGRTSDWLGRRYTIVLAGAFFFCGALLMGFATNYPFIMVGRFVAGIGVGYAMMIAPVYTAEVAPASSRGFLTSFPEIFINIGILLGYVSNYFFSKLPEHLGWRFMLGVGAVPSVFLAIGVLAMPESPRWLVLQGRLGDAFKVLDKTSNTKEEAISRLDDIKRAVGIPDDMTDDVIVVPNKKSAGKGVWKDLLVRPTPSVRHILIACLGIHFAQQASGIDAVVLYSPTIFSKAGLKSKNDQLLATVAVGVVKTLFIVVGTCVVDRFGRRALLLTSMGGMFLSLTALGTSLTVINRNPGQTLKWAIGLAVTTVMTFVATFSIGAGPVTWVYCSEIFPVRLRAQGASLGVMLNRLMSGIIGMTFLSLSKGLTIGGAFLLFAGVAAAAWVFFFTFLPETRGIPLEEMETLFGSYTANKKNNSMSKDNEVVDGQ
On to B2, for which the Michaelis-Menten constant (Km) in data set [2] was found to be 770 ± 120 µM; in data set [1] it was 140 ± 20 µM.
